Drawing on patent publication US20200255478A1, “NOVEL COMPOUNDS ACTIVATING THE NRF2 PATHWAY” (Almirall, S.A., priority 2017, published 2020), this text covers IC50 for 6 molecules.

pIC50: −log10 of the molar value. Starred links: 1 amine or outer side, 2 acyl side, 3 side chain; linkers in the order of their positions; H or OH if unused. Positions of bridges follow the written chain, without caps; N, C: chain ends. Non-standard residues stand in square brackets, D forms with d. Residues, ends and D or L forms follow the SMILES beside them. Phe(4-yl) = O=C([C@H](Cc1ccc([*:3])cc1)N[*:1])[*:2]; mXylylene = c1cc(C[*:1])cc(C[*:2])c1; βAla = NCCC(=O)O A value given as a limit tells only on which side of the number the result lay.

The target in the first assay is Keap1-Maltose Binding Protein (MBP tag) (Homo sapiens, UniProt Q14145). Description: Nrf2-Keap1 HTRF (TR-FRET) binding assay: displacement of biotinylated ETGE peptide from Keap1-MBP.
Sequence of Keap1-Maltose Binding Protein (MBP tag) (Q14145 whole entry): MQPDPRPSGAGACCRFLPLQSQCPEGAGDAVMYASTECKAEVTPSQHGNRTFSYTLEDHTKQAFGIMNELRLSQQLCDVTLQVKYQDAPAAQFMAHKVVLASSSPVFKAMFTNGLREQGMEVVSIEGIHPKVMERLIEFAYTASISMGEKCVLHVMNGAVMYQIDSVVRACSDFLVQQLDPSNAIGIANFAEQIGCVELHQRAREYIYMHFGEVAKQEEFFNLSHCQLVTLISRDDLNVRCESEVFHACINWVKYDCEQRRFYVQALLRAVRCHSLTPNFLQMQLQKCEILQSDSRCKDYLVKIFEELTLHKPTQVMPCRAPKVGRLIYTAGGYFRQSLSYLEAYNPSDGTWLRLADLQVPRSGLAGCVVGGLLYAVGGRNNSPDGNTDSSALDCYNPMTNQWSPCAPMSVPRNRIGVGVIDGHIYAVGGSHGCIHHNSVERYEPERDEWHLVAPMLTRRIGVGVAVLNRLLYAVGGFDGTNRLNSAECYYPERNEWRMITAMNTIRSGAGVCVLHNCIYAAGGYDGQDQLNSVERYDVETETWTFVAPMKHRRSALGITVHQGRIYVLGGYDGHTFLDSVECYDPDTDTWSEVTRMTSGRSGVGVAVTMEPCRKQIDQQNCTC
Settings: not given
For orientation: In TR-FRET formats the signal depends on donor and acceptor labels being close together.
A word on the pIC50: it is the negative decadic logarithm of the IC50, by convention in mol/L. Regarding `CC(C)C[C@@H]1NC(=O)[C@@H]2CCCN2C(=O)[C@H](CC(C)C)NC(=O)[C@@H]2CSCc3cccc(c3)CSC[C@H](NC(=O)[C@H](CCC(N)=O)NC1=O)C(=O)N[C@@H](CC(=O)O)C(=O)N[C@@H](C)C(=O)N[C@@H](CCC(=O)O)C(=O)N[C@@H]([C@@H](C)O)C(=O)NCC(=O)N[C@@H](CCC(=O)O)C(=O)N2` [Example 17] (cyclo(AETGECLPLQCD); linker 6-11 via mXylylene), the pIC50 is 7.00 to 9.00.

Still in this assay, the particulars now being: HTRF (TR-FRET); displacement of ETGE-biotin from Keap1-MBP; values banded into grades; read-out: Binding (IC50) ETGE-Keap1.
In the case of `CC(C)C[C@H](NC(=O)[C@H](CC(C)C)NC(=O)[C@@H]1CSCc2ccccc2CSC[C@H](NC(=O)[C@H](CC(C)C)NC(=O)[C@@H](N)CC(C)C)C(=O)N[C@@H](CC(=O)O)C(=O)N2CCC[C@H]2C(=O)N[C@@H](CCC(=O)O)C(=O)N[C@@H]([C@@H](C)O)C(=O)NCC(=O)N[C@@H](CCC(=O)O)C(=O)N1)C(=O)NCCC(=O)N[C@@H](CCCNC(=N)N)C(=O)N[C@@H](CCCCN)C(=O)N[C@@H](CCCCN)C(=O)N[C@@H](CCCNC(=N)N)C(=O)N[C@@H](CCCNC(=N)N)C(=O)N[C@@H](CCC(N)=O)C(=O)N[C@@H](CCCNC(=N)N)C(=O)N[C@@H](CCCNC(=N)N)C(=O)N[C@@H](CCCNC(=N)N)C(N)=O` [Example 60], the pIC50 was over 9.00. On the same count and under the same terms, then `CCCCCCCCCCCCCCCCCC(=O)N[C@H]1CCCCNC(=O)[C@H]2CCCN2C(=O)[C@H](CC(C)C)NC(=O)[C@@H]2CSCc3ccccc3CSC[C@H](NC(=O)[C@H](CCC(N)=O)NC1=O)C(=O)N[C@@H](CC(=O)O)C(=O)N1CCC[C@H]1C(=O)N[C@@H](CCC(=O)O)C(=O)N[C@@H]([C@@H](C)O)C(=O)NCC(=O)N[C@@H](CCC(=O)O)C(=O)N2` [Example 92, {[Stearyl-Lys(&^1)-Gln-Cys(&^2)-Asp-Pro-Glu-Thr-Gly-Glu-Cys(&^3)-Leu-D-Pro&^1][&^2(1,2-phenylenediyl)dimethylene&^3]}], with over 9.00. Same read-out and setting: then `CC(C)C[C@H](NC(=O)[C@@H]1CSCc2cccc(c2)CSC[C@H](NC(=O)[C@H](CCC(N)=O)NC(=O)[C@@H](N)CC(C)C)C(=O)N[C@@H](CC(=O)O)C(=O)N[C@@H](CCC(=O)O)C(=O)N[C@@H](CCC(=O)O)C(=O)N[C@@H]([C@@H](C)O)C(=O)NCC(=O)N[C@@H](CCC(=O)O)C(=O)N1)C(=O)N1CCC[C@H]1C(=O)NCCC(=O)N[C@@H](Cc1ccc(O)cc1)C(=O)N[C@@H](C)C(=O)N[C@@H](CCCNC(=N)N)C(=O)N[C@@H](C)C(=O)N[C@@H](C)C(=O)N[C@@H](C)C(=O)N[C@@H](CCCNC(=N)N)C(=O)N[C@@H](CCC(N)=O)C(=O)N[C@@H](C)C(=O)N[C@@H](CCCNC(=N)N)C(=O)N[C@@H](C)C(N)=O` [Example 13] (H-LQCDEETGECLP[βAla]YARAAARQARA-NH2; linker 3-10 via mXylylene), with 7.00 to 9.00; and `CC(=O)N[C@H]1Cc2ccc(cc2)SC[C@@H](C(N)=O)NC(=O)[C@H](CCC(=O)O)NC(=O)CNC(=O)[C@H]([C@@H](C)O)NC(=O)[C@H](CCC(=O)O)NC(=O)[C@H](CCC(=O)O)NC(=O)[C@H](CC(=O)O)NC1=O` [Example 10, Acetyl-Phe(p-&^1)-Asp-Glu-Glu-Thr-Gly-Glu-Cys(&^1)-NH2] (Ac-[Phe(4-yl)]DEETGEC-NH2; thioether 1-8), with 5.30 to 7.00; and `CCCCCCCCCCCCCCCCCC(=O)N[C@H]1C[C@H]2C(=O)N[C@@H](CCC(N)=O)C(=O)N[C@H]3CSCc4cccc(c4)CSC[C@H](NC(=O)[C@H](CCC(=O)O)NC(=O)CNC(=O)[C@H]([C@@H](C)O)NC(=O)[C@H](CCC(=O)O)NC(=O)[C@@H]4CSCN4C(=O)[C@H](CC(=O)O)NC3=O)C(=O)N[C@@H](CC(C)C)C(=O)N3CCC[C@@H]3C(=O)N2C1` [Example 96, {[&^1Pro((4S)-NH-Stearyl)-Gln-Cys(&^2)-Asp-Thz-Glu-Thr-Gly-Glu-Cys(&^3)-Leu-D-Pro&^1][&^2(1,3-phenylenediyl)dimethylene&^3]}], with over 9.00.
